Source: patent EP0400319A1, “4-(4'-Halophenyl)-2-methyl-1,2,3,4-tetrahydroisoquinolines and process for their preparation” (N I S PRI VCHTI, priority 1989, dated 1990)
Several values for one entry are separate records, joined by “and”; a condition that tells them apart may be missing. Equal entries are not always repeated. Structures can show the parent of a compound that is named as a salt.

Tested on: durch Wasser-Immersionsstreß verursachte Magengeschwüre
Experiment: Water-immersion stress induced gastric ulcers in rats
Format: in vivo, Ratten
Conditions: for Geschwürindex: 5 h water immersion; for Antiulkuswirkung im Vergleich zum Präparat Ranitidin: ratio of doses giving about 52% inhibition
From the text: Untersucht wurde auch die Antiulkusaktivität der razemischen 1a- und 1b-Verbindungen auf ein experimentelles Modell von Wasser-Immersionsstreß verursachten Magengeschwüren bei Ratten (Tabelle 2). Das Vergleichspräparat war der H₂-Antagonist Ranitidin.
Bestimmung der inhibierenden Wirkung von 1a und 1b auf durch Wasser-Immersionsstreß verursachte Magengeschwüre bei Ratten
Die Versuche wurden mit 280 weißen männlichen Ratten der Rasse Wistar mit einem Gewicht von 150 bis 200 g nach der in K. Takadi, Y. Ischii, Arzneim. Forsch. Drug Res., 1967, 17, 1544, beschriebenen Methode durchgeführt. 18 h vor dem Versuch hungern die Tiere unter freiem Wasserzutritt. Die Versuchsverbindung wird oral verabreicht, worauf die Tiere unbeweglich und voneinander isoliert auf dem Rücken auf eine Unterlage gebunden werden. Man legt die Tiere bei 17-18°C ins Wasser und tötet sie nach 5 h. Die Mägen werden entnommen und die destruktiven Veränderungen makroskopisch bestimmt.

SMILES	ED50 (Rattus norvegicus, 5 h, oral, Inhibierungsgrad 52% at this dose, read-out: durchschnittliche effektive Dosis) [mg/kg]	Dosis, bei der der Inhibierungsgrad ein Maximum erreicht (oral) [mg/kg]	Unterdrückung des Geschwürindex (oral, 0,050 mg/kg)	Geschwürindex (oral, 0,050 mg/kg)	Unterdrückung des Geschwürindex (oral, 0,100 mg/kg)	Geschwürindex (oral, 0,100 mg/kg)	Unterdrückung des Geschwürindex (oral, 0,500 mg/kg)	Geschwürindex (oral, 0,500 mg/kg)	Unterdrückung des Geschwürindex (oral, 1,000 mg/kg)	Geschwürindex (oral, 1,000 mg/kg)	Unterdrückung des Geschwürindex (oral, 3,000 mg/kg)	Geschwürindex (oral, 3,000 mg/kg)	Antiulkuswirkung im Vergleich zum Präparat Ranitidin (oral)	Unterdrückung des Geschwürindex (oral, 10 mg/kg)	Geschwürindex (oral, 10 mg/kg)	Unterdrückung des Geschwürindex (oral, 30 mg/kg)	Geschwürindex (oral, 30 mg/kg)
CN1Cc2ccccc2C(c2ccc(Br)cc2)C1 (racemic) [1a, 4-(4′-Bromphenyl)-2-methyl-1,2,3,4-tetrahydroisochinolin Hydrochlorid]	0.5	3	20,6%	69 ±18,2	48,9% and 48,3%	44,4 ± 9,66	52,1%	30,8 ±17,7	58,9%	35,7 ±14,2	70,3%	19,5 ±12,3	20 Mal				
CN1Cc2ccccc2C(c2ccc(F)cc2)C1 (racemic) [1b, 4-(4′-fluorphenyl)-2-methyl-1,2,3,4-tetrahydroisochinolin Hydrochlorid]									41,53%	38,5 ± 7,75	57,98%	27,66±12,73	Ähnliche Ergebnisse				
CNC(=C[N+](=O)[O-])NCCSCc1ccc(CN(C)C)o1 [Ranitidin, reference compound]							27%	32,3	39,27%	26,9	35,89%	28,4		46,98%	22,8	61,62%	17,0
